According to PubChem BioAssay (NCI):
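Five concentrations, 48 hours, 96-well plates. GI50 is the concentration that inhibits growth by half. At the TGI there is no net growth.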

Columns and labels:
Assay in all cases: DTP human tumour cell line panel, 48 h
[1] = tested on: SK-MEL-2 melanoma
[2] = tested on: CAKI-1 renal
[3] = tested on: SNB-19 CNS
[4] = tested on: SK-MEL-28 melanoma
[5] = tested on: RPMI-8226 leukemia
[6] = tested on: NCI-H460 lung
[7] = tested on: SF-268 CNS
[8] = tested on: IGROV1 ovarian
[9] = tested on: TK-10 renal
[10] = tested on: PC-3 prostate

SMILES	TGI [1]	TGI [2]	TGI [3]	TGI [4]	TGI [5]	TGI [6]	TGI [7]	TGI [8]	TGI [9]	GI50 [2]	GI50 [3]	GI50 [4]	GI50 [5]	GI50 [10]	TGI [10]	GI50 [6]	GI50 [7]	GI50 [8]	GI50 [9]	GI50 [1]
CC(=O)Nc1ccc(OCC(O)CO)cc1 (stereo not given)	> 100 µM	> 100 µM	> 100 µM	> 100 µM	43.9 µM	> 100 µM	> 100 µM	> 100 µM	> 100 µM											
N#CC1([N+](=O)[O-])C=C1c1ccccc1 (stereo not given)	> 100 µM	> 100 µM	> 100 µM		49.5 µM	> 100 µM	> 100 µM	> 100 µM	> 100 µM											
O=S1(=O)C=C(c2ccccc2)C(c2ccccc2)=C1		2.63 µM	4.63 µM	3.18 µM	7.92 µM	4.23 µM	3.38 µM			1.16 µM	1.98 µM	1.77 µM	3.3 µM	1.79 µM	4.52 µM	1.88 µM	1.49 µM			
CC(=O)OC1(C#N)CC2OC1C1NC21 (stereo not given)	> 100 µM	> 100 µM	> 100 µM	> 100 µM	> 100 µM	> 100 µM	> 100 µM	> 100 µM	> 100 µM											
CCCCCCC(=O)CC(=O)C(=O)Nc1ccccc1C	> 100 µM	> 100 µM	> 100 µM	> 100 µM	> 100 µM	> 81.2 µM	> 100 µM	> 100 µM	> 100 µM											
O=C1OC(=O)C2C1C1C(c3ccccc3)=C(c3ccccc3)C2(O)C2C(=O)OC(=O)C12 (stereo not given)	> 100 µM	> 100 µM	> 100 µM	> 100 µM	> 100 µM	> 100 µM	> 100 µM	> 100 µM	> 100 µM											
CCOc1cc[n+](C(=C=[N-])C#N)cc1		> 100 µM	> 100 µM		> 100 µM	> 100 µM	> 100 µM	> 100 µM	> 100 µM											
CC(=O)CC(=O)ON(C)C(=O)Cc1ccccc1		> 100 µM	> 100 µM	> 100 µM	> 100 µM	> 100 µM	> 100 µM	> 100 µM	> 100 µM											
O=S1Cc2ccccc2CSS1 (stereo not given)		35.8 µM	> 100 µM	26.8 µM	39.8 µM	32.9 µM	74.2 µM	> 100 µM	33.2 µM											
CC1CCC2[C@@H](C)COC3O[C@]4(C)CCC1C32OO4 (stereo not given in full)	> 100 µM	> 100 µM	> 100 µM	> 100 µM		> 100 µM	> 100 µM	> 100 µM	> 100 µM											
COc1cc(OC)c2c(c1Cl)O[C@]1(C2=O)C(OCc2ccccc2)=CC(=O)C[C@H]1C		60.6 µM	98.8 µM	24.8 µM	17 µM	12.6 µM	53.8 µM	79.6 µM	63.2 µM	0.656 µM	5.68 µM	1.85 µM	1.13 µM	1.6 µM	63.3 µM	0.401 µM	1.82 µM	2.79 µM	4.34 µM	
COc1c(OC2OC(CO)C(O)C(O)C2O)cc2c(c1OC)-c1ccc(OC)c(=O)cc1[C@@H](NC(C)=O)CC2 (stereo not given in full)	> 100 µM	> 100 µM	> 100 µM	> 100 µM	> 100 µM	> 100 µM	> 56.2 µM	> 100 µM	> 100 µM											
Nc1ncnc2c1ncn2COC/C=C/I	> 100 µM	> 100 µM	> 100 µM	> 100 µM	> 100 µM	> 100 µM	> 100 µM	> 100 µM	> 100 µM											
CCOc1ccccc1NC(=O)C(=O)c1c(O)c2ccc(O)cc2oc1=O	> 100 µM	> 100 µM	> 100 µM	> 100 µM		> 100 µM	> 100 µM	> 100 µM	> 100 µM											
N#CC12CC3(CCC1CCC1(C2)OCCO1)OCCO3 (stereo not given)	> 100 µM	> 100 µM	> 100 µM	> 100 µM	> 100 µM	> 100 µM	> 100 µM	> 100 µM	> 100 µM											
Cc1ccc(NC(=O)CC2C(=O)Nc3ccccc3S2(=O)=O)cc1C (stereo not given)	> 100 µM	> 100 µM	> 100 µM	> 100 µM	> 100 µM	> 100 µM		> 100 µM	> 100 µM											
COc1ccc(CNC(=O)c2c(C)n([O-])c3cc(F)c(F)cc3[n+]2=O)cc1	29.5 µM		25.8 µM	23.6 µM	30.9 µM	25.9 µM	15.7 µM	3.84 µM	27.1 µM		13.1 µM	11.5 µM	6.4 µM	11.7 µM	23.9 µM	13.1 µM	4.4 µM	1.9 µM	14.1 µM	15.4 µM
COC(=O)C(C(=O)C(=O)Nc1ccc(N)cc1[N+](=O)[O-])c1nc2ccc(Cl)cc2[nH]c1=O (stereo not given)	> 100 µM	> 100 µM	> 100 µM	> 100 µM	> 100 µM	> 100 µM	> 100 µM	> 100 µM	> 100 µM											
Cc1c(C(=O)Nc2ccc(Cl)cc2)nc(N)nc1-c1cccc(Cl)c1		> 100 µM	> 100 µM	> 100 µM		> 100 µM	> 100 µM	> 100 µM												
CC1=C(C(=O)NCc2ccccc2)C(c2ccccc2O)C(C(=O)NCc2ccccc2)=C(C)N1	32.6 µM	44.3 µM	42.4 µM	35.8 µM	> 100 µM	39.2 µM	55.3 µM	39 µM	34 µM											
CCCCCC/C(CC(=O)CCC(=O)NCCc1ccccc1)=N\NC(=O)c1ccc2ccccc2c1O	53.7 µM		> 100 µM	> 100 µM	> 100 µM	> 100 µM	> 100 µM	> 100 µM	> 100 µM											
